Laboratory results: article PMC6114082, “Synthesis of aminophenylhydroxamate and aminobenzylhydroxamate derivatives and in vitro screening for antiparasitic and histone deacetylase inhibitory activity” (International Journal for Parasitology: Drugs and Drug …, 2018)

Columns and labels:
[1] = tested on: L. braziliensis MHOM/BR/75/M209; experiment: Antileishmanial activity, L. braziliensis promastigotes (luciferase expressing strain); assay type: cell-based, Leishmania braziliensis; settings: Leishmania braziliensis
Procedure: The antitrypanosomatid activity of the compounds was ascertained as follows. Leishmania parasites were cultured at 26 °C in SDM-79 medium supplemented with 10% fetal calf serum (FCS), and the antileishmanial activity was determined according to a previously published protocol for LUC-expressing and wild-type Leishmania ([Sereno et al., 2001], [Abbassi et al., 2008]). Trypanosoma brucei gambiense were grown at 26 °C in Cunningham's medium supplemented with 10% FCS, 2 mM GlutaMAX-1 (Gibco, USA), 100 U/ml penicillin, 100 μg/ml streptomycin and […] bovine hemin. The epimastigote form of Trypanosoma cruzi (strain Y cl7 scl2, lineage Tc2) (kindly provided by Philippe Truc and Christian Barnabé, UMR 177 IRD-CIRAD InterTryp, Montpellier, France) were grown at 26 °C in liver infusion tryptose (LIT) medium, supplemented with 10% FCS, 2 mM GlutaMAX™-I, 100 U/ml penicillin, 100 μg/ml streptomycin and bovine hemin (20 mg/l) (Gibco). The antitrypanosomatids activity was determined using a protocol that was initialy set up for wild-type Leishmania ([Abbassi et al., 2008]). To assess the drug activity on Toxoplasma gondii, confluent human foreskin fibroblast (HFF) monolayers were infected with YFP-type I Rh kindly provided by B. Striepen, see ([Striepen et al., 1998]) or Tomato-type II Pru kindly provided by N. Blanchard (Toulouse), expressing parasites at 5 × 10^4 per well, which were then centrifuged for 30 s at 1300 rpm and incubated for 30 min in a water bath at 37 °C to allow invasion. The wells were then washed three times with PBS to eliminate extracellular parasites, and the drugs were added at various concentrations ranging from 1 to 50 μM. After incubation for 24 h at 37 °C in a humidified atmosphere containing 5% CO2, the cells were fixed in 2.5% methanol-free formaldehyde (Tebu-bio)/PBS for 30 min at room temperature. Nuclei were stained with Hoechst 33258 (2 μg/ml, Molecular Probes) for 20 min and then washed three times with water for 10 min each time. The number of infected cells, i.e., cells harboring a parasitophorous vacuole, and the number of parasites per vacuole were determined using an Olympus ScanR microscope ( × 20 objective) and ScanR software. The parasitic index in % compared to the control was calculated as follows: (PI=((number of parasite/100 cells in treated wells) x (% of infected macrophage in treated well)/(number of parasite/100 cells in untreated wells) x (% of infected macrophage in untreated wells))*100).

[2] = Cytotoxicity, MTT assay, THP-1; assay type: cell-based, human; settings: human, THP-1 cells (monocytic cell line); MTT assay
Procedure: (§1) The human monocytic cell line THP-1 was cultivated in RPMI medium supplemented with 10% FCS, 2 mM GlutaMAX, 100 U/ml penicillin, and 100 μg/ml streptomycin. HFF cells were cultivated in Dulbecco's modified Eagle's medium (DMEM) with Earle's salts containing 10% FCS, 10 mM HEPES, 1 mM sodium pyruvate, 2 mM GlutaMAX, 100 U/ml penicillin, and 100 μg/ml streptomycin. The THP-1 and HFF cells were maintained in a 5% CO2 incubator at 37 °C. Cytotoxicity was evaluated via the MTT assay, and the IC50 values were calculated using Prism software (Prism 4 for Mac OS X, version 5.0b, December, 2008).

[3] = tested on: THP-1 cells; experiment: Cytotoxicity, MTT assay, THP-1; assay type: cell-based, human
Procedure: as §1

[4] = tested on: HeLa nuclear extract (HDAC 1, 2, 6, and 8 predominant); experiment: Fluorometric HDAC assay, HeLa nuclear extract; assay type: biochemical
Procedure: (§2) The HDACi effect against HeLa nuclear extracts and recombinant proteins were measured using a fluorometric HDAC assay kit (Active Motif, Belgium) according to the manufacturer's instructions. […] A negative control containing trichostatin A at a final concentration of 2 μM was analyzed for each independent experiment.

[5] = target: T1, HDAC 6 (Homo sapiens, UniProt Q9UBN7); experiment: Fluorometric HDAC assay, recombinant HDAC6; assay type: biochemical
T1 construct: purchased Active Motif, Belgium
T1 sequence (Q9UBN7 1-1215): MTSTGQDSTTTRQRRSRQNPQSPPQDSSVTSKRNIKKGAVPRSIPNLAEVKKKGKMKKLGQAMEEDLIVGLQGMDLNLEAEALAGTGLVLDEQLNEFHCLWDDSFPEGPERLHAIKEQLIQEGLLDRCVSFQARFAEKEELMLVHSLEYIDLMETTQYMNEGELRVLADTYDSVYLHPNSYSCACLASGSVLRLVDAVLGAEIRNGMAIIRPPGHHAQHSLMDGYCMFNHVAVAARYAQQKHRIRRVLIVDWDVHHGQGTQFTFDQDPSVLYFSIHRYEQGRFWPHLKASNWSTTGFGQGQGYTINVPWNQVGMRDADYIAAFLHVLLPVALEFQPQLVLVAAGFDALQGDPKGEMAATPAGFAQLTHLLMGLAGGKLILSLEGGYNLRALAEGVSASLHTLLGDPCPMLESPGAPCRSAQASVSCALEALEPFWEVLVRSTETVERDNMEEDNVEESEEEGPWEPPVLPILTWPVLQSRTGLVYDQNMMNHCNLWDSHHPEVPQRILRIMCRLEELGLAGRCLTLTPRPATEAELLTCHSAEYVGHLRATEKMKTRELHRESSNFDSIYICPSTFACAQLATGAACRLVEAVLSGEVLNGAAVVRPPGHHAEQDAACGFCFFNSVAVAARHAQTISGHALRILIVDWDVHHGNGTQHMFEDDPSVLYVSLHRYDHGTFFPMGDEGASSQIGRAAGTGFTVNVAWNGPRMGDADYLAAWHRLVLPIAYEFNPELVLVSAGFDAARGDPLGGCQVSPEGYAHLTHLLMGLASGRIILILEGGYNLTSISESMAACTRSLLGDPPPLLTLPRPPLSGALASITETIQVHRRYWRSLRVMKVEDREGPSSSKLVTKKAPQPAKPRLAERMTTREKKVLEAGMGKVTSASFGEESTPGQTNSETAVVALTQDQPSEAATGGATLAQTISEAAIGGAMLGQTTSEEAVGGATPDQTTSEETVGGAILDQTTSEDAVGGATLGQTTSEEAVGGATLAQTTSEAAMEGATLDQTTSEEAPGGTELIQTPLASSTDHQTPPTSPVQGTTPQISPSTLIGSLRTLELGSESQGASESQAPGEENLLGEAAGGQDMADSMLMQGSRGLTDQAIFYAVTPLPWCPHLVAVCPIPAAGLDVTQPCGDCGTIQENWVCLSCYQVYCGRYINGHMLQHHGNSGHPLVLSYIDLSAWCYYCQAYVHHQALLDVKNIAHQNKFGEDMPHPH
Procedure: as §2

[6] = target: T2, HDAC 3 (Homo sapiens, UniProt O15379); experiment: Fluorometric HDAC assay, recombinant HDAC3; assay type: biochemical
T2 construct: purchased Active Motif, Belgium
Procedure: as §2

T2 sequence (O15379 whole entry): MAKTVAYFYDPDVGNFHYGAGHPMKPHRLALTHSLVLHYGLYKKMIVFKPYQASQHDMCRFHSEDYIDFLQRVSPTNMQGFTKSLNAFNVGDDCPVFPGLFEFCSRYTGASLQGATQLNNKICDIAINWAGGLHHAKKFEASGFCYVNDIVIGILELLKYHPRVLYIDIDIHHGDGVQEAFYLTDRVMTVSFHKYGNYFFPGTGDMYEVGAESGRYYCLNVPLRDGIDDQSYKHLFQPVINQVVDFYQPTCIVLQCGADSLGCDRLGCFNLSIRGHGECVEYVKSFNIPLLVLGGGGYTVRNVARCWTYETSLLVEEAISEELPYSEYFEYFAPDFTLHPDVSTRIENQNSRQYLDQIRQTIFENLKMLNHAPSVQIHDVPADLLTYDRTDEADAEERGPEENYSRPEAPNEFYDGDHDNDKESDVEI
T2 sequence (O75376 395-489 partner limits assumed): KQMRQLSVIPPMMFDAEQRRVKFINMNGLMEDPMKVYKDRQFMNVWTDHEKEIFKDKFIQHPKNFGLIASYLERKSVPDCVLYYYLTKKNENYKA

**Q.** For `COc1cccc(CC(=O)Nc2ccc(C(=O)NO)cc2)c1` [Compound 363, N-hydroxy-4-[2-(3-methoxyphenyl)acetamido]benzamide], which IC50 [1] is on record?
**A.** > 60000 nM

**Q.** And the IC50 [2]?
**A.** 3600 ± 500 nM

**Q.** What about the “selectivity index, THP-1 cells vs T. gondii” value [3] of the same compound?
**A.** 10

**Q.** What about the “HDACi effect, inhibition at single concentration” value ([4]; 1.0 μM, screen on HeLa nuclear extract and recombinant HDAC1, 3, 6, 8 (Fig. 2A)) of the same compound?
**A.** 90%

**Q.** And the IC50 ([4]; HeLa nuclear extract, read-out: HDACi HeLa IC50)?
**A.** 85 ± 35 nM

**Q.** What about the “Fold, HDAC 6” value ([5]; 363 as compared to SAHA) of the same compound?
**A.** 34.9

**Q.** And the IC50 ([5]; recombinant protein, read-out: rHDAC 6 IC50)?
**A.** 45 ± 15 nM

**Q.** And the “Fold, HDAC 3” value ([6]; 363 as compared to SAHA)?
**A.** 1.06

**Q.** What about the IC50 ([6]; recombinant protein, read-out: rHDAC 3 IC50) of the same compound?
**A.** 160 ± 52 nM
